From US10568950B1, “Peptides, combination of peptides and scaffolds for use in immunotherapeutic treatment of various cancers” (Immatics Biotechnologies GmbH, priority 2015, dated 2020)

Tests used:
[1] = test system: CD8+ T cells of healthy HLA-A*24+ donors; assay: In vitro immunogenicity: priming of CD8+ T cells with aAPCs loaded with HLA-A*24/peptide complexes and anti-CD28, multimer staining; type: cell-based, human; details: for Wells positive [%]: in vitro immunogenicity, HLA-A*24 peptides of Table 12B; for wells: in vitro immunogenicity of HLA class I peptides, share of positive wells, peptides of Table 3 (HLA-A*24 binding)
Procedure: CD8+ T cells were primed using artificial APCs coated with anti-CD28 mAb and HLA-A*24 in complex with SEQ ID NO: 99 peptide (FIG. 5A, left panel), SEQ ID NO: 119 peptide (FIG. 5B, left panel), SEQ ID NO: 142 peptide (FIG. 5C, left panel) and SEQ ID NO: 174 peptide (FIG. 5D, left panel), respectively. After three cycles of stimulation, the detection of peptide-reactive cells was performed by 2D multimer staining with A*24/SEQ ID NO: 99 (A), A*24/SEQ ID NO: 119 (B), A*24/SEQ ID NO: 142 (C) or A*24/SEQ ID NO: 174 (D). Right panels (FIGS. 5A, 5B, 5C and 5D) show control staining of cells stimulated with irrelevant A*24/peptide complexes. Viable singlet cells were gated for CD8+ lymphocytes. Boolean gates helped excluding false-positive events detected with multimers specific for different peptides. Frequencies of specific multimer+ cells among CD8+ lymphocytes are indicated.
In order to obtain information regarding the immunogenicity of the TUMAPs of the present invention, the inventors performed investigations using an in vitro T-cell priming assay based on repeated stimulations of CD8+ T cells with artificial antigen presenting cells (aAPCs) loaded with peptide/MHC complexes and anti-CD28 antibody.
PBMCs and isolated CD8+ lymphocytes were incubated in T-cell medium (TCM) until use consisting of RPMI-Glutamax (Invitrogen, Karlsruhe, Germany) supplemented with 10% heat inactivated human AB serum (PAN-Biotech, Aidenbach, Germany), 100 U/ml Penicillin/100 μg/ml Streptomycin (Cambrex, Cologne, Germany), 1 mM sodium pyruvate (CC Pro, Oberdorla, Germany), 20 μg/ml Gentamycin (Cambrex). 2.5 ng/ml IL-7 (PromoCell, Heidelberg, Germany) and 10 U/ml IL-2 (Novartis Pharma, Nurnberg, Germany) were also added to the TCM at this step.
Generation of pMHC/anti-CD28 coated beads, T-cell stimulations and readout was performed in a highly defined in vitro system using four different pMHC molecules per stimulation condition and 8 different pMHC molecules per readout condition.
The purified co-stimulatory mouse IgG2a anti human CD28 Ab 9.3 (Jung et al., 1987) was chemically biotinylated using Sulfo-N-hydroxysuccinimidobiotin as recommended by the manufacturer (Perbio, Bonn, Germany). Beads used were 5.6 μm diameter streptavidin coated polystyrene particles (Bangs Laboratories, Illinois, USA).
800.000 beads/200 μl were coated in 96-well plates in the presence of 4×12.5 ng different biotin-pMHC, washed and 600 ng biotin anti-CD28 were added subsequently in a volume of 200 μl. Stimulations were initiated in 96-well plates by co-incubating […] CD8+ T cells with 2×10^5 washed coated beads in 200 μl TCM supplemented with 5 ng/ml IL-12 (PromoCell) for 3 days at 37° C. Half of the medium was then exchanged by fresh TCM supplemented with 80 U/ml IL-2 and incubating was continued for 4 days at 37° C. This stimulation cycle was performed for a total of three times. For the pMHC multimer readout using 8 different pMHC molecules per condition, a two-dimensional combinatorial coding approach was used as previously described (Andersen et al., 2012) with minor modifications encompassing coupling to 5 different fluorochromes. Finally, multimeric analyses were performed by staining the cells with Live/dead near IR dye (Invitrogen, Karlsruhe, Germany), CD8-FITC antibody clone SKI (BD, Heidelberg, Germany) and fluorescent pMHC multimers. For analysis, a BD LSRII SORP cytometer equipped with appropriate lasers and filters was used. Peptide specific cells were calculated as percentage of total CD8+ cells. Evaluation of multimeric analysis was done using the FlowJo software (Tree Star, Oreg., USA). In vitro priming of specific multimer+ CD8+ lymphocytes was detected by comparing to negative control stimulations.

HLA-A*24 = assay: MHC binding assay: UV-ligand exchange, beta2m ELISA (peptide exchange yield); parameters: species or system human; details: binding to HLA-A*24, β2m ELISA

Substance | Wells positive [%] [1] | Peptide exchange (MHC class I binding score, peptide exchange yield) (HLA-A*24) | wells [1]
96 (YYTQYSQTI; listed as Homo sapiens) [compound 96] | + (<20% = +) | ++++ (>= 75% = ++++) | –
99 (QYILAVPVL; listed as Homo sapiens) [compound 99] | +++ (50%-69% = +++) | ++++ (>= 75% = ++++) | –
104 (SYLTWHQQI; listed as Homo sapiens) [compound 104] | + (<20% = +) | ++++ (>= 75% = ++++) | –
109 (LFITGGQFF; listed as Homo sapiens) [compound 109] | ++ (20%-49% = ++) | ++++ (>= 75% = ++++) | –
114 (QYLDGTWSL; listed as Homo sapiens) [compound 114] | +++ (50%-69% = +++) | ++++ (>= 75% = ++++) | –
120 (GYIEHFSLW; listed as Homo sapiens) [compound 120] | ++ (20%-49% = ++) | ++++ (>= 75% = ++++) | –
132 (RYPALFPVL; listed as Homo sapiens) [compound 132] | + (<20% = +) | ++++ (>= 75% = ++++) | –
137 (EYLHNCSYF; listed as Homo sapiens) [compound 137] | + (<20% = +) | ++++ (>= 75% = ++++) | –
140 (RYLINSYDF; listed as Homo sapiens) [compound 140] | +++ (50%-69% = +++) | ++++ (>= 75% = ++++) | –
144 (VFASLPGFLF; listed as Homo sapiens) [compound 144] | ++ (20%-49% = ++) | ++++ (>= 75% = ++++) | –
155 (IYKWITDNF; listed as Homo sapiens) [compound 155] | ++ (20%-49% = ++) | ++++ (>= 75% = ++++) | –
156 (YYMELTKLLL; listed as Homo sapiens) [compound 156] | + (<20% = +) | ++++ (>= 75% = ++++) | –
163 (RYLTISNLQF; listed as Homo sapiens) [compound 163] | + (<20% = +) | ++++ (>= 75% = ++++) | –
166 (FYTLPFHLI; listed as Homo sapiens) [compound 166] | ++++ (>= 70 % = ++++) | ++++ (>= 75% = ++++) | –
170 (QYPFHVPLL; listed as Homo sapiens) [compound 170] | +++ (50%-69% = +++) | ++++ (>= 75% = ++++) | –
172 (VFIFKGNEF; listed as Homo sapiens) [compound 172] | + (<20% = +) | ++++ (>= 75% = ++++) | –
182 (AYAQLGYLLF; listed as Homo sapiens) [compound 182] | +++ (50%-69% = +++) | ++++ (>= 75% = ++++) | –
186 (VFTTSSNIF; listed as Homo sapiens) [compound 186] | + (<20% = +) | ++++ (>= 75% = ++++) | –
344 (EYNSDLHQF; listed as Homo sapiens) [compound 344] | + (<20% = +) | – | –
345 (EYNSDLHQFF; listed as Homo sapiens) [compound 345] | ++ (20%-49% = ++) | – | –

Substance | Wells positive [%] [1] | Peptide exchange (MHC class I binding score, peptide exchange yield) (HLA-A*24) | wells [1]
349 (QYSIISNVF; listed as Homo sapiens) [compound 349] | ++ (20%-49% = ++) | – | –
350 (KYGNFIDKL; listed as Homo sapiens) [compound 350] | +++ (50%-69% = +++) | – | –
351 (IFHEVPLKF; listed as Homo sapiens) [compound 351] | ++ (20%-49% = ++) | – | –
353 (TYGKIDLGF; listed as Homo sapiens) [compound 353] | + (<20% = +) | – | –
354 (VYNEQIRDLL; listed as Homo sapiens) [compound 354] | + (<20% = +) | – | –
356 (NYMPGQLTI; listed as Homo sapiens) [compound 356] | + (<20% = +) | ++++ (>= 75% = ++++) | –
358 (YYSEVPVKL; listed as Homo sapiens) [compound 358] | ++++ (>= 70 % = ++++) | – | –
359 (NYGVLHVTF; listed as Homo sapiens) [compound 359] | + (<20% = +) | ++++ (>= 75% = ++++) | –
360 (VFSPDGHLF; listed as Homo sapiens) [compound 360] | ++ (20%-49% = ++) | – | –
363 (SYAELGTTI; listed as Homo sapiens) [compound 363] | + (<20% = +) | – | –
365 (VFIDHPVHL; listed as Homo sapiens) [compound 365] | + (<20% = +) | ++++ (>= 75% = ++++) | –
366 (QYLELAHSL; listed as Homo sapiens) [compound 366] | ++ (20%-49% = ++) | – | –
367 (LYQDHMQYI; listed as Homo sapiens) [compound 367] | ++ (20%-49% = ++) | – | –
371 (AYSHLRYVF; listed as Homo sapiens) [compound 371] | ++ (20%-49% = ++) | – | –
380 (VYTGIDHHW; listed as Homo sapiens) [compound 380] | + (<20% = +) | ++++ (>= 75% = ++++) | –
393 (KYIEAIQWI; listed as Homo sapiens) [compound 393] | – | – | ++ (20%-49% = ++)
399 (SYIDVLPEF; listed as Homo sapiens) [compound 399] | – | – | ++ (20%-49% = ++)
400 (KYLEKYYNL; listed as Homo sapiens) [compound 400] | – | – | ++ (20%-49% = ++)
407 (VYGIRLEHF; listed as Homo sapiens) [compound 407] | – | – | +++ (50%-69% = +++)
414 (MYPYIYHVL; listed as Homo sapiens) [compound 414] | – | – | ++ (20%-49% = ++)
